The experiment has as its target IRAK4 (Homo sapiens (Human), UniProt Q9NWZ3). The experiment is described as follows: IRAK-4 AlphaScreen biochemical kinase assay. Particulars: 1 nM IRAK4, 1 mM ATP, 3.5 h at RT. The gist of the method: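 AlphaScreen read-out: streptavidin beads bind the biotinylated peptide and protein A beads bind the anti-phosphothreonine antibody, so energy transfer reports phosphorylation of the peptide. The kinase is human IRAK-4.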
Background: Alpha assays give light when donor and acceptor beads are brought close together.
Sequence of IRAK4 (Q9NWZ3 whole entry, species assumed): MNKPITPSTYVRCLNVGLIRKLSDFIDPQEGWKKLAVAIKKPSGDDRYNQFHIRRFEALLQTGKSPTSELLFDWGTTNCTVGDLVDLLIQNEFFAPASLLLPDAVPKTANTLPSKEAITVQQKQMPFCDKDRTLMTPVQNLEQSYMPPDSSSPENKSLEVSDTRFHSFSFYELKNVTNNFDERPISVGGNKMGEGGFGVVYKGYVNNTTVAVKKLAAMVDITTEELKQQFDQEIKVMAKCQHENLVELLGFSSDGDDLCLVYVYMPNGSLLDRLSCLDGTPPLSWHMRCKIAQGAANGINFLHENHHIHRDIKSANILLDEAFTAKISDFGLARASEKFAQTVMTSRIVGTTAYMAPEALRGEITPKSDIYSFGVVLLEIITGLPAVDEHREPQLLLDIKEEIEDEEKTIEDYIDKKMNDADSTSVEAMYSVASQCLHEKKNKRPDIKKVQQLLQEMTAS
`CC(=O)NCc1cc(-c2cccc(C(C)N)n2)cc2nn(-c3cccc(C)n3)cc12` (stereo not shown) [Example 217, N-((6-(6-(1-aminoethyl)pyridin-2-yl)-2-(6-methylpyridin-2-yl)-2H-indazol-4-yl)methyl)acetamide] displayed an IC50 of 1 to 10 µM. In the case of `CC(=O)c1cccc(-c2cc(Cl)c3cnn(-c4cccc(C)n4)c3c2)n1` [Example 218, 1-(6-(4-chloro-1-(6-methylpyridin-2-yl)-1H-indazol-6-yl)pyridin-2-yl)ethanone], the half-maximal inhibitory concentration (IC50) lay in the range of 1 to 10 µM. Turning to `C/C(=N/O)c1cccc(-c2cc(Cl)c3cnn(-c4cccc(C)n4)c3c2)n1` [Example 219, (Z)-1-(6-(4-chloro-1-(6-methylpyridin-2-yl)-1H-indazol-6-yl)pyridin-2-yl)ethanone oxime], the IC50 lay within 1 to 10 µM.

In turn, `Cc1cccc(-n2ncc3ccc(-c4cccc(C(C)N(C)C)n4)cc32)n1` (stereo not shown) [Example 220, N,N-dimethyl-1-(6-(1-(6-methylpyridin-2-yl)-1H-indazol-6-yl)pyridin-2-yl)ethanamine] had a half-inhibitory concentration (IC50) of 0.1 to 1 µM. The result for `C/C(=N/O)c1cccc(-c2ccc3cnc(-c4cccc(C(F)(F)F)n4)n3c2)n1` [Example 224, (Z)-1-(6-(3-(6-(trifluoromethyl)pyridin-2-yl)imidazo[1,5-a]pyridin-6-yl)pyridin-2-yl)ethanone oxime] reads > 10 µM; that for `CC(=O)c1cccc(-c2cc(N(C)C(=O)OC(C)(C)C)c3cnn(-c4cccc(C)n4)c3c2)n1` [Example 225, tert-butyl (6-(6-acetylpyridin-2-yl)-1-(6-methylpyridin-2-yl)-1H-indazol-4-yl)(methyl)carbamate], 1 to 10 µM; that for `C/C(=N/O)c1cccc(-c2cc(N(C)C(=O)OC(C)(C)C)c3cnn(-c4cccc(C)n4)c3c2)n1` [Example 226, (Z)-tert-butyl (6-(6-(1-(hydroxyimino)ethyl)pyridin-2-yl)-1-(6-methylpyridin-2-yl)-1H-indazol-4-yl)(methyl)carbamate], > 10 µM. As for `CNc1cc(-c2cccc(/C(C)=N\O)n2)cc2c1cnn2-c1cccc(C)n1` [Example 227, (Z)-1-(6-(4-(methylamino)-1-(6-methylpyridin-2-yl)-1H-indazol-6-yl)pyridin-2-yl)ethanone oxime], the figure is 1 to 10 µM; as for `CCc1cccc(-n2ncc3ccc(-c4cccc(C(C)=O)n4)cc32)n1` [Example 228, 1-(6-(1-(6-ethylpyridin-2-yl)-1H-indazol-6-yl)pyridin-2-yl)ethanone], 0.1 to 1 µM. `CC(=O)c1cccc(-c2ccc3cnn(-c4ccccn4)c3c2)n1` [Example 229, 1-(6-(1-(pyridin-2-yl)-1H-indazol-6-yl)pyridin-2-yl)ethanone] displayed a 50% inhibitory concentration (IC50) of 1 to 10 µM.

On to `C/C(=N\O)c1cccc(-c2ccc3cnn(-c4ccccn4)c3c2)n1` [Example 230, (E)-1-(6-(1-(pyridin-2-yl)-1H-indazol-6-yl)pyridin-2-yl)ethanone oxime], for which the IC50 was > 10 µM. The result for `Cc1cccc(-n2ncc3ccc(-c4cc(N)cc(CN)n4)cc32)n1` [Example 231, 2-(aminomethyl)-6-(1-(6-methylpyridin-2-yl)-1H-indazol-6-yl)pyridin-4-amine] reads < 0.1 µM. The result for `Cc1cccc(-n2ncc3ccc(-c4cccc(C(C)N(C)C)n4)cc32)n1` (stereo not shown) [Example 232, N,N-dimethyl-1-(6-(1-(6-methylpyridin-2-yl)-1H-indazol-6-yl)pyridin-2-yl)ethanamine] reads 0.1 to 1 µM; that for `CC(=O)c1cccc(-c2cc(N(C)C)c3cnn(-c4cccc(C)n4)c3c2)n1` [Example 233, 1-(6-(4-(dimethylamino)-1-(6-methylpyridin-2-yl)-1H-indazol-6-yl)pyridin-2-yl)ethanone], 1 to 10 µM; that for `C/C(=N\O)c1cccc(-c2cc(N(C)C)c3cnn(-c4cccc(C)n4)c3c2)n1` [Example 234, (E)-1-(6-(4-(dimethylamino)-1-(6-methylpyridin-2-yl)-1H-indazol-6-yl)pyridin-2-yl)ethanone oxime], 0.1 to 1 µM.

`CCc1cccc(-n2ncc3ccc(-c4cccc(/C(C)=N/O)n4)cc32)n1` [Example 235, (E)-1-(6-(1-(6-ethylpyridin-2-yl)-1H-indazol-6-yl)pyridin-2-yl)ethanone oxime] came in with an IC50 of 1 to 10 µM.

For the molecule `CC(=O)c1cccc(-c2ccc3cnn(-c4cccc(C#N)n4)c3c2)n1` [Example 236, 6-(6-(6-acet6ylpyridin-2-yl)-1H-indazol-1-yl)picolinonitrile], the IC50 was > 10 µM. As for `COC(=O)c1cccc(-n2ncc3ccc(-c4cccc(/C(C)=N/O)n4)cc32)n1` [Example 237, (E)-methyl 6-(6-(6-(1-(hydroxyimino)ethyl)pyridin-2-yl)-1H-indazol-1-yl)picolinate], the figure is > 10 µM; as for `CC(=O)c1cccc(-c2ccc3cnn(-c4nc(C)cs4)c3c2)n1` [Example 239], > 10 µM.

Consider `CC(N)c1cccc(-c2cc(F)c3cnn(-c4cccc(C(F)(F)F)n4)c3c2)n1` (stereo not shown) [Example 240, 1-(6-(4-fluoro-1-(6-(trifluoromethyl)pyridin-2-yl)-1H-indazol-6-yl)pyridin-2-yl)ethanamine], for which the IC50 was < 0.1 µM. As for `Cc1cccc(-n2ncc3ccc(-c4ccc(F)c(C(C)N)n4)cc32)n1` (stereo not shown) [Example 242, 1-(3-fluoro-6-(1-(6-methylpyridin-2-yl)-1H-indazol-6-yl)pyridin-2-yl)ethanamine], the figure is < 0.1 µM; as for `COC(=O)c1nc(-c2ccc3cnn(-c4cccc(C)n4)c3c2)ccc1N` [Example 243, methyl 3-amino-6-(1-(6-methylpyridin-2-yl)-1H-indazol-6-yl)picolinate], 1 to 10 µM; as for `Cc1cccc(-n2ncc3ccc(-c4cccc(C(O)C(F)(F)F)n4)cc32)n1` (stereo not shown) [Example 244, 2,2,2-trifluoro-1-(6-(1-(6-methylpyridin-2-yl)-1H-indazol-6-yl)pyridin-2-yl)ethanol], 0.1 to 1 µM. As for `CCOc1cc(-c2cccc(C(C)N)n2)cc2c1cnn2-c1cccc(C)n1` (stereo not shown) [Example 245, 1-(6-(4-ethoxy-1-(6-methylpyridin-2-yl)-1H-indazol-6-yl)pyridin-2-yl)ethanamine], the figure is < 0.1 µM; as for `COc1cc(-c2cccc(C(C)N)n2)cc2c1cnn2-c1cccc(C)n1` (stereo not shown) [Example 246, 1-(6-(4-methoxy-1-(6-methylpyridin-2-yl)-1H-indazol-6-yl)pyridin-2-yl)ethanamine], < 0.1 µM. The result for `Cc1cccc(-n2ncc3ccc(-c4cccc(C(N)CCO)n4)cc32)n1` (stereo not shown) [Example 247, 3-amino-3-(6-(1-(6-methylpyridin-2-yl)-1H-indazol-6-yl)pyridin-2-yl)propan-1-ol] reads < 0.1 µM; that for `Cc1cccc(-n2ncc3ccc(-c4cccc(C(N)=O)n4)cc32)n1` [Example 248, 6-(1-(6-methylpyridin-2-yl)-1H-indazol-6-yl)picolinamide], 0.1 to 1 µM.

In turn, `Cc1cccc(-n2ncc3ccc(-c4cccc(CC#N)n4)cc32)n1` [Example 249, 2-(6-(1-(6-methylpyridin-2-yl)-1H-indazol-6-yl)pyridin-2-yl)acetonitrile] returned a 50% inhibitory concentration (IC50) of 0.1 to 1 µM. Turning to `Cc1cccc(-n2ncc3c(O)cc(-c4cccc(C(C)N)n4)cc32)n1` (stereo not shown) [Example 250, 6-(6-(1-aminoethyl)pyridin-2-yl)-1-(6-methylpyridin-2-yl)-1H-indazol-4-ol], the 50% inhibitory concentration (IC50) was < 0.1 µM. In the case of `Cc1cccc(-n2ncc3c(OCC4CC4)cc(-c4cccc(C(C)N)n4)cc32)n1` (stereo not shown) [Example 251], the IC50 fell in the range of 0.1 to 1 µM.

As to `Cc1cccc(-n2ncc3ccc(-c4csc(CN)n4)cc32)n1` [Example 252, (4-(1-(6-methylpyridin-2-yl)-1H-indazol-6-yl)thiazol-2-yl)methanamine], the IC50 lay in the range of 0.1 to 1 µM. In the case of `CC(=O)NCc1cccc(-c2ccc3cnn(-c4cccc(C)n4)c3c2)n1` [Example 253, N-((6-(1-(6-methylpyridin-2-yl)-1H-indazol-6-yl)pyridin-2-yl)methyl)acetamide], the IC50 is 1 to 10 µM.

`Cc1cccc(-n2ncc3ccc(-c4cccc(CCN)n4)cc32)n1` [Example 254, 2-(6-(1-(6-methylpyridin-2-yl)-1H-indazol-6-yl)pyridin-2-yl)ethanamine] yielded an IC50 of 0.1 to 1 µM. As for `Cc1cccc(-n2ncc3ccc(-c4ccc(C(F)(F)F)c(C(C)N)n4)cc32)n1` (stereo not shown) [Example 255, 1-(6-(1-(6-methylpyridin-2-yl)-1H-indazol-6-yl)-3-(trifluoromethyl)pyridin-2-yl)ethanamine], the figure is 0.1 to 1 µM; as for `Cc1cccc(-n2ncc3ccc(-c4cc(N)cc(C(C)N)n4)cc32)n1` (stereo not shown) [Example 256, 2-(1-aminoethyl)-6-(1-(6-methylpyridin-2-yl)-1H-indazol-6-yl)pyridin-4-amine], < 0.1 µM. As to `Cc1cccc(-n2ncc3ccc(-c4cn(C)c(CO)n4)cc32)n1` [Example 257, (1-methyl-4-(1-(6-methylpyridin-2-yl)-1H-indazol-6-yl)-1H-imidazol-2-yl)methanol], the IC50 was < 0.1 µM. `Cc1cccc(-n2ncc3ccc(-c4cccc(C(N)C#N)n4)cc32)n1` (stereo not shown) [Example 258, 2-amino-2-(6-(1-(6-methylpyridin-2-yl)-1H-indazol-6-yl)pyridin-2-yl)acetonitrile] returned a half-maximal inhibitory concentration (IC50) of 0.1 to 1 µM. As for `Cc1cccc(-n2ncc3ccc(-c4cccc(C(N)C(F)(F)F)n4)cc32)n1` (stereo not shown) [Example 259, 2,2,2-trifluoro-1-(6-(1-(6-methylpyridin-2-yl)-1H-indazol-6-yl)pyridin-2-yl)ethanamine], the figure is 0.1 to 1 µM; as for `Cc1cccc(-n2ncc3ccc(-c4cccc(C(N)CC(=O)O)n4)cc32)n1` (stereo not shown) [Example 260, 3-amino-3-(6-(1-(6-methylpyridin-2-yl)-1H-indazol-6-yl)pyridin-2-yl)propanoic acid], 0.1 to 1 µM; as for `COC(=O)CC(N)c1cccc(-c2ccc3cnn(-c4cccc(C)n4)c3c2)n1` (stereo not shown) [Example 261, methyl 3-amino-3-(6-(1-(6-methylpyridin-2-yl)-1H-indazol-6-yl)pyridin-2-yl)propanoate], < 0.1 µM.

Broadly, the IC50 is the point on the concentration scale where inhibition reaches its midpoint. A high value points to weaker potency in that assay.

The values are drawn from patent US10246456B2, “IRAK4 inhibiting agents” (BIOGEN MA INC., priority 2014, dated 2019).
